Experiments:
[1] = tested on: ATF4 in H929 multiple myeloma cells; test: H929 ATF4 ELISA assay (stimulation of cellular ATF4); format: cell-based; settings: 4 h, no thapsigargin
Experimental: H929 multiple myeloma cells (catalog #CRL-9068) were obtained from the American Type Culture Collection (ATTC, Manassas, VA). Briefly, cells were grown in RPMI-1640 medium supplemented with 20% heat-inactivated fetal bovine serum (catalog #A3840002, ThermoFisher Scientific, Waltham, MA), 1% Penicillin/Streptomycin/L-Glutamine (catalog #10378016, ThermoFisher Scientific, Waltham, MA), and 0.05 mM 2-mercaptoethanol (catalog #21985-023, ThermoFisher Scientific, Waltham, MA) at 37° C., 5% CO2, and 95% humidity. Cells were expanded until reaching one million five hundred thousand cells per mL at which time they were subcultured or harvested for assay use. One million five hundred thousand cells per well in 1 mL complete growth medium were dispensed into 12-well plates and incubated overnight. A serial dilution of test compound was added, and cells were incubated at 37° C., 5% CO2, and 95% for four hours. Cells were lysed then ATF4 levels were measured using an ELISA assay (Proteintech, Rosemont, IL). Absorbance is measured at 450 nm and 544 nM using a Synergy2 or equivalent reader (Biotek, Winooski VT). Data were analyzed using PRISM software (Graphpad, San Diego, CA) to calculate fold stimulation of cellular ATF4 relative to vehicle treated control.

[2] = tested on: ATF4 in CCRF-CEM leukemia cells (PERK); test: CCRF-CEM TG ATF4 ELISA, phenotypic assay for cellular inhibition of PERK preactivated by thapsigargin; format: cell-based; settings: Homo sapiens; Thapsigargin (1 μM) stimulated CCRF-CEM cells
GCN2 kinase = GCN2 kinase (Homo sapiens (Human), UniProt Q9P2K8); test: Biochemical assay for GCN2 (TR-FRET kinase activity assay); settings: 1 mM ATP, 3-hour incubation
Summary of the method: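 TR-FRET assay with 2 nM GCN2, 130 nM GFP-eIF2α substrate, 0.2 mg/mL E. coli tRNA and 1 mM ATP; compounds (0.5% DMSO) reacted 3 h. Stopped with 20 mM EDTA plus 2 nM Tb-anti-peIF2α (pSer52), 60 min RT; 520/490 ratio converted to % inhibition, IC50 from four-parameter fit.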

CCRF-CEM leukemia cells = test: CCRF-CEM ASNase cell proliferation assay, phenotypic assay for cellular inhibition of GCN2; format: cell-based; settings: Homo sapiens; ASNase treated CCRF-CEM cells, 1 mU/mL ASNase, 72 h
Summary of the method: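 Cells were seeded at ten thousand per well in RPMI-1640 with 10% heat-inactivated FBS and treated in triplicate with serially diluted compound plus 1 mU/mL ASNase for 72 h at 37 °C, 5% CO2. Resazurin was then added for 6 h, with fluorescence read at ex 540/em 600 nm to derive IC50 values.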

PERK kinase = PERK kinase (Homo sapiens (Human), UniProt Q9NZJ5); test: Biochemical assay for PERK (coupled pyruvate kinase/lactate dehydrogenase assay); settings: 1 mM ATP, rate from 2-3 h time frame
Summary of the method: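 Coupled pyruvate kinase/lactate dehydrogenase readout of ATP hydrolysis via NADH oxidation (A340), 10 nM PERK, 0.25 mg/mL myelin basic protein, 1 mM ATP, pH 7.5 Tris/MgCl2 buffer, 1% DMSO. Absorbance followed 6 h at 30° C; rate from the 2-3 h window, normalised to no-compound and known-inhibitor controls, IC50 fitted.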

[3] = tested on: phospho-GCN2 (Thr899) in HCT116 colorectal cancer cells; test: HCT116 amino acid starved (-AA) phospho-GCN2 assay (Western blot); format: cell-based; settings: Homo sapiens, HCT-116, 4 h, read-out: HCT116-AA pGCN2 Western Blot
Summary of the method: (§1)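 HCT116 cells switched to amino-acid-free EBSS (10% dialyzed FBS, 5.5 mM glucose, vitamins) with serial compound dilutions for 4 h at 37° C. Lysates Western blotted for phospho-GCN2 (Thr899), total GCN2, ATF4 and beta-actin; IC50 values derived from quantified bands.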

[4] = tested on: ATF4 in HCT116 colorectal cancer cells; test: HCT116 amino acid starved (-AA) ATF4 assay (Western blot); format: cell-based; settings: Homo sapiens, HCT-116, 4 h
Summary of the method: as §1

PERK kinase, sequence (Q9NZJ5 other isoform, or with tags, fused parts or gaps): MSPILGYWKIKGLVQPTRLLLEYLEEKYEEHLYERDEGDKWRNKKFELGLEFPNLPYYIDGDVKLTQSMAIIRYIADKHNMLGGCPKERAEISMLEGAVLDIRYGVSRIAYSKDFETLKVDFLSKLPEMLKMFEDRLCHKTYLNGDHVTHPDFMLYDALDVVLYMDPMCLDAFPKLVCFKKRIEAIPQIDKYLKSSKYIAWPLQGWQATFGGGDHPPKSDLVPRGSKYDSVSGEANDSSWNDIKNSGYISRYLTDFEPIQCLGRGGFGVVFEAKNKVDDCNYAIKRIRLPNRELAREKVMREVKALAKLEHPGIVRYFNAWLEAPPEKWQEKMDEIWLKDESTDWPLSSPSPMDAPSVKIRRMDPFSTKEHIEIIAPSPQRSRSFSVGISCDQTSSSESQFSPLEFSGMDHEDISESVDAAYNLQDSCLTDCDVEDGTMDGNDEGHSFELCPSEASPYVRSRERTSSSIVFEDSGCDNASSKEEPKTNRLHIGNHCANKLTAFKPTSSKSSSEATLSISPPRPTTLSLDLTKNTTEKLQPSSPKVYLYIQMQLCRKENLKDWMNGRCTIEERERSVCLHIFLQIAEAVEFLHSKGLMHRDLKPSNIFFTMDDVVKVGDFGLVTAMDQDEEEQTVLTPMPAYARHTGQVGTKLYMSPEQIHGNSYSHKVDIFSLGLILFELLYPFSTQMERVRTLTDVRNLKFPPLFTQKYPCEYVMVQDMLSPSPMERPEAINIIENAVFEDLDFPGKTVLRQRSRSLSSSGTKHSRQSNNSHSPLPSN
GCN2 kinase, sequence (Q9P2K8 whole entry): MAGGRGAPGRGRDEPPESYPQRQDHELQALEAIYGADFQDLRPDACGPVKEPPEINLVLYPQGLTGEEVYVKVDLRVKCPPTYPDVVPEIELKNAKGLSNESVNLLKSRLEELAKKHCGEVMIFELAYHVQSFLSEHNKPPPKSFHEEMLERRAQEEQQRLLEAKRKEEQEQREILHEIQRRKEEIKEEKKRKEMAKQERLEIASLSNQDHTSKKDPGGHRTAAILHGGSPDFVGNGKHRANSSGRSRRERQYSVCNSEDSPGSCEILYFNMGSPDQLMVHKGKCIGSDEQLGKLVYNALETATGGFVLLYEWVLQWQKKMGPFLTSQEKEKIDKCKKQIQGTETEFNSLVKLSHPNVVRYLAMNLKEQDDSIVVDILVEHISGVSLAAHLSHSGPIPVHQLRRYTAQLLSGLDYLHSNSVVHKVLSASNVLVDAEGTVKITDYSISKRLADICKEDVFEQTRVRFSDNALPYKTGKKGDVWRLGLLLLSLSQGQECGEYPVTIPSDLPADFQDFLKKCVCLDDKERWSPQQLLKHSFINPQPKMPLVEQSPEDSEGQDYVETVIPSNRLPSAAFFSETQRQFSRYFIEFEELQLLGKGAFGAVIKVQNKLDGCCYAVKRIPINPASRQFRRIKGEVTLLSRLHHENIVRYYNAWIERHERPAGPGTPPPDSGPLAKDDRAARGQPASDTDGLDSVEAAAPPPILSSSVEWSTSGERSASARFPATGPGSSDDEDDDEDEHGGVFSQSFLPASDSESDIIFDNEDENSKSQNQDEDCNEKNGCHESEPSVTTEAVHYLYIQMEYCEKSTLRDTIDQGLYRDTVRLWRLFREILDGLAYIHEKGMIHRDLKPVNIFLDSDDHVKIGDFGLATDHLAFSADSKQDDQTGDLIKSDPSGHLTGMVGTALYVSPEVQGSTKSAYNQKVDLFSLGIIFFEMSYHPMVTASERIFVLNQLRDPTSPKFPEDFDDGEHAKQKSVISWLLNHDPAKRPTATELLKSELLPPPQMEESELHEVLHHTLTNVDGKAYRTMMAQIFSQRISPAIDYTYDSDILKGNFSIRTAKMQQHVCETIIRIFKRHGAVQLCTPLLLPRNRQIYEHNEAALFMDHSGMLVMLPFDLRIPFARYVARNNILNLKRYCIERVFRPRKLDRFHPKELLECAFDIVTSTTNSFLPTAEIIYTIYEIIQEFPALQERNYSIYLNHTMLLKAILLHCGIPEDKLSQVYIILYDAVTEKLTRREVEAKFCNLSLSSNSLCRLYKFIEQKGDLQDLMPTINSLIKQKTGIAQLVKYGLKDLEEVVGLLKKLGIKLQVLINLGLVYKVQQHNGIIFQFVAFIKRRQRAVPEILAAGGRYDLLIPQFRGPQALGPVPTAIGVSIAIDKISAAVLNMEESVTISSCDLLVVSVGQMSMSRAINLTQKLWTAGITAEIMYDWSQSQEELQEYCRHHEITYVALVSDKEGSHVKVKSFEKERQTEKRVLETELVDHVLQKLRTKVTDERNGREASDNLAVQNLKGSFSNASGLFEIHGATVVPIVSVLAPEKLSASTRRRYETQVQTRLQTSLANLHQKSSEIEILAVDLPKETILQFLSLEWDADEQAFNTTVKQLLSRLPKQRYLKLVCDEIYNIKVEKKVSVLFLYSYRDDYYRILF

SMILES | H929 NS ATF4 ELISA (fold stimulation of ATF4 relative to vehicle) [1] | IC50 [2] [nM] | IC50 (GCN2 kinase) [nM] | IC50 (CCRF-CEM leukemia cells) [nM] | IC50 (PERK kinase) [nM] | IC50 [3] [nM] | IC50 [4] [nM]
CNc1cc2nc(N)c(-c3cccc(NS(=O)(=O)c4cc(Cl)cnc4OC)c3F)cc2cn1 [Example 128] | +++ (“+++” refers to an ATF4 stim greater than 10 fold and less than or equal to 20 fold) | ≤ 100 | ≤ 100 | ≤ 100 | ≤ 100 | ≤ 100 | ≤ 100
CNc1cc2nc(C)c(-c3cccc(NS(=O)(=O)c4cc(Cl)cnc4OC)c3F)cc2cn1 [Example 31] | ++ (“++” refers to an ATF4 stim greater than 5 fold and less than or equal to 10 fold) | 1000 to 10000 | ≤ 100 | ≤ 100 | ≤ 100 | ≤ 100 | ≤ 100
CNc1nc2nc(N)ncc2cc1-c1cccc(NS(=O)(=O)c2cc(Cl)cnc2OC)c1F [Example 109, N-(3-(2-amino-7-(methylamino)pyrido[2,3-d]pyrimidin-6-yl)-2-fluorophenyl)-5-chloro-2-methoxypyridine-3-sulfonamide] | +++ (“+++” refers to an ATF4 stim greater than 10 fold and less than or equal to 20 fold) | 500 to 1000 | ≤ 100 | ≤ 100 | 100 to 500 | ≤ 100 | ≤ 100
CNc1cc2nc(C)c(-c3cc(F)cc(NS(=O)(=O)c4cc(Cl)cc(CO)c4Cl)c3)cc2cn1 [Example 25] | ++ (“++” refers to an ATF4 stim greater than 5 fold and less than or equal to 10 fold) | 1000 to 10000 | ≤ 100 | ≤ 100 | ≤ 100 | ≤ 100 | ≤ 100
CNc1ncc2cc(-c3cccc(NS(=O)(=O)c4cc(Cl)cc(CO)c4OC)c3F)c(NC)nc2n1 [Example 179] | +++ (“+++” refers to an ATF4 stim greater than 10 fold and less than or equal to 20 fold) | 100 to 500 | ≤ 100 | ≤ 100 | ≤ 100 |  | 
CNc1ncc2cc(-c3cc(NS(=O)(=O)c4cc(Cl)cnc4OC)cc(F)c3F)c(NC)nc2n1 [Example 49] | + (“+” refers to an ATF4 stim less than or equal to 5-fold) | 1000 to 10000 | ≤ 100 | ≤ 100 | 100 to 500 | ≤ 100 | 100 to 500
CNc1ncc2cc(-c3cccc(NS(=O)(=O)c4cccc(CO)c4Cl)c3F)c(NC)nc2n1 [Example 151] | ++ (“++” refers to an ATF4 stim greater than 5 fold and less than or equal to 10 fold) | 100 to 500 | ≤ 100 | ≤ 100 | 100 to 500 | ≤ 100 | ≤ 100
CNc1nc2nc(Nc3cnn(C)c3)ncc2cc1-c1cccc(NS(=O)(=O)c2cc(Cl)cnc2OC)c1F [Example 110] | ++ (“++” refers to an ATF4 stim greater than 5 fold and less than or equal to 10 fold) | 100 to 500 | ≤ 100 | ≤ 100 | ≤ 100 | ≤ 100 | ≤ 100

Reference: patent US11912668B2, “GCN2 and perk kinase inhibitors and methods of use thereof” (Deciphera Pharmaceuticals, LLC, priority 2020, dated 2024)
